Read-outs that look alike come from different tables or passages of the source. Numbered stars: 1 amine (or outer) side, 2 acyl side, 3 side chain; on linkers, the order of the positions; unused ones are H or OH. Bridge positions count the residues as written; N and C are the ends. Square brackets hold non-standard residues; d marks the D form. Peptide text beside a SMILES is read from it. N(2-Aminoethyl)Gly = O=C(CN(CCN[*:3])[*:1])[*:2]; CO = O=C([*:1])[*:2]; Nlys = NCCCCNCC(=O)O
Columns and labels:
[1] = test system: U937 macrophages-VCAM-1 (α4β1, αMβ2, α3β1, α6β1); test: Adhesion of U937 macrophages to immobilized VCAM-1; type: cell-based, human
Experimental: Cell adhesion assay was carried out as previously described[47] with minor modifications. The day before the experiment, each well was coated with VCAM-1 (3 mg/mL) immobilized on the 96-well plate in PBS by overnight incubation at 4 °C. Thereafter, nonspecific binding was blocked by incubating the wells with 1% (w/v) bovine serum albumin (BSA) in Hank’s Balanced Salt Solution (HBSS) containing 5 mM MgCl2 at room temperature for 1 h before use. The cells were labeled by incubation with 12.5 μM 5-chloromethylfluorescein diacetate (CMFDA) in HBSS without 1% BSA at 37 °C for 30 min. The labeled cells were then centrifuged at 1000 rpm and washed twice with HBSS containing 1% BSA to remove excess CMFDA. Labeled cells (about 1 × 10^5 cells/well) were plated on each well in the presence or absence of visabrons and incubated at 37 °C for 60 min. Unbound cells were removed by washing the wells three times with 1% (w/v) BSA in HBSS, and bound cells were lysed by the addition of 0.5% Triton X-100 (diluted in DDW). The fluorescence in each well was quantified with a SPECTRAFluor Plus plate reader (Tecan), at λex = 485 nm and λem = 530 nm. To determine the number of adhered cells from the fluorescence values, a standard curve was generated by serial dilution of known numbers of CMFDA-labeled cells.

[2] = molecular target: T1, LynA (Homo sapiens, UniProt P07948); test: PhosphoSens CSox-based kinase assay, LynA; type: biochemical; conditions: 1 mM, but not 0.1 mM; Figure 7
T1 construct: purchased Carna 08-171
Experimental: Kinase activity was measured using the PhosphoSenstechnology (AssayQuant Technologies Inc., Marlborough, MA) as detailed in the Supporting Information. […]
Visabron c (4-4) safety by in vitro evaluation using PhosphoSens - CSox based kinase assays:
A powerful method was used to measure the activity of recombinant protein kinases using a homogeneous and continuous (kinetic) format, where the level of chelation-enhanced fluorescence (CHEF) that is directly proportional to the amount of phosphorylated, real-time sensors consisting of sulfonamido-oxine (Sox) chromophore, linked to a peptide or protein substrates of selective kinases 6. […]
Kinase activity measurements: Kinase activity was measured continuously using the PhosphoSens® technology (AssayQuant Technologies Inc., Marlborough, MA) according to the manufacturers’ recommendations. This one-step homogeneous assay format uses chelation -enhanced fluorescence via optimized substrate sensors containing the unnatural fluorogenic amino -acid Sox. […]
Final reaction conditions : Protein kinase activity was determined in 54 mM HEPES, pH 7.5, 1 mM ATP, 1.2 mM DTT, 0.012% Brij-35, 0.52 mM EGTA, 10 mM MgCl2, 1% glycerol, 0.2mg/ml BSA, and 15 μM Sox -based sensor. […]

[3] = U937 treated with PMA (10 ng/mL) for 24 h, read-out: IC50 U937 macrophages-VCAM-1 PMA
[4] = untreated U937, read-out: IC50 U937 macrophages-VCAM-1 control

T1 sequence (P07948 whole entry): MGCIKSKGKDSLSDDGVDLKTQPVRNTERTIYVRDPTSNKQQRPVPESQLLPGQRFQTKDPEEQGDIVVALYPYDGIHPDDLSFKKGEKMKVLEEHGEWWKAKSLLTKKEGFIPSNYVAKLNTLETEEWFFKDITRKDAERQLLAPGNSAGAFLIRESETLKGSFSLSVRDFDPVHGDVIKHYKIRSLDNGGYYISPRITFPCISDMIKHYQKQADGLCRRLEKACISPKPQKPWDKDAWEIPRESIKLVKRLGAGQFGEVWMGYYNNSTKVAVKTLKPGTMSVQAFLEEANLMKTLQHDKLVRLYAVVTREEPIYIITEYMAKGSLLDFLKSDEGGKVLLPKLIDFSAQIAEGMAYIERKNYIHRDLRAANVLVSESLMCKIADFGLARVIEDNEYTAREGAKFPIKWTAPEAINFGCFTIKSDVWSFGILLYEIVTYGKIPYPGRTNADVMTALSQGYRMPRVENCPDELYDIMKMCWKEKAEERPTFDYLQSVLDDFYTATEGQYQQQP

Row | Structure (SMILES) | IC50 [1, 3] | IC50 [1, 4] | inhibition at 1000 µM [2]
1 | CSCC[C@@H]1NC(=O)[C@H]([C@@H](C)O)NC(=O)CN(C(=O)[C@@H](N)CCCCN)CCNC(=O)NCCN(CC(=O)N[C@@H](CC(C)C)C(N)=O)C(=O)[C@H](CC(=O)O)NC(=O)[C@H](CC(C)C)NC1=O [visabron c (2–2)] (H-K[N(2-Aminoethyl)Gly]TMLD[N(2-Aminoethyl)Gly]L-NH2; linker 2-7 via CO) | 16 µM | 53 µM | 
2 | CSCC[C@@H]1NC(=O)[C@H]([C@@H](C)O)NC(=O)CN(C(=O)[C@@H](N)CCCCN)CCCCNC(=O)NCCCCN(CC(=O)N[C@@H](CC(C)C)C(N)=O)C(=O)[C@H](CC(=O)O)NC(=O)[C@H](CC(C)C)NC1=O [visabron c (4–4)] (H-K[Nlys]TMLD[Nlys]L-NH2; linker 2-7 via CO) | 10 µM | 11 µM | 25 to 40%
